We go through 20 compounds from PubChem BioAssay AID200 (DTP/NCI, 2004).

This assay has as its system B6C3F1 mice, B16 melanoma ip, median survival T/C. As to the kind of experiment: NCI In Vivo Anticancer Drug Screen. Data for tumor model B16 Melanoma (intraperitoneal) in B6C3F1 mice. To be noted: endpoint: median survival time, higher = longer survival. The method in brief: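 Mice bearing transplanted tumor were dosed with compound or vehicle, and survival was recorded. Activity is expressed as the treated-group measurement (T) divided by the vehicle control measurement (C).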

Where [1] appears, read: dose: 3.12 mg/kg/injection, schedule: Q01DX009 (ip), vehicle: saline.
Setting [2] is: dose: 6.25 mg/kg/injection, schedule: Q01DX009 (ip), vehicle: saline.
[3] abbreviates: dose: 50.0 mg/kg/injection, schedule: Q01DX009 (ip), vehicle: saline with Tween-80.
Where [4] appears, read: dose: 100.0 mg/kg/injection, schedule: Q01DX009 (ip), vehicle: saline with Tween-80.
The mark [5] stands for this setting: dose: 200.0 mg/kg/injection, schedule: Q01DX009 (ip), vehicle: saline with Tween-80.
Where [6] appears, read: dose: 50.0 mg/kg/injection, schedule: Q01DX009 (ip), vehicle: Klucel (hydroxypropylcellulose) (HPC).
[7] abbreviates: dose: 100.0 mg/kg/injection, schedule: Q01DX009 (ip), vehicle: Klucel (hydroxypropylcellulose) (HPC).
Setting [8] is: dose: 200.0 mg/kg/injection, schedule: Q01DX009 (ip), vehicle: Klucel (hydroxypropylcellulose) (HPC).
The mark [9] stands for this setting: dose: 8.0 mg/kg/injection, schedule: Q01DX009 (ip), vehicle: saline.
[10] abbreviates: dose: 6.25 mg/kg/injection, schedule: Q01DX009 (ip), vehicle: saline with Tween-80.
[11] abbreviates: dose: 12.5 mg/kg/injection, schedule: Q01DX009 (ip), vehicle: saline with Tween-80.
The mark [12] stands for this setting: dose: 25.0 mg/kg/injection, schedule: Q01DX009 (ip), vehicle: saline with Tween-80.
[13] abbreviates: dose: 400.0 mg/kg/injection, schedule: Q01DX009 (ip), vehicle: Klucel (hydroxypropylcellulose) (HPC).

“And” between values parts separate entries of the source, which are not always exact repeats. Identical values can stand only once. Toxic doses and inconclusive results are not listed. *1 amine or outer side, *2 acyl side, *3 side chain or, on linkers, in order; H or OH if unused. Where a SMILES comes first, the peptide text is derived from it. Bridges are numbered along the chain shown (N, C = ends). [ ]: non-standard residue; d: D form. The star is where a group is joined. X5 = CC(C)C(C)C(C(=O)[*:2])N(C)[*:1]; Picolinoyl(3-OH) = O=C(c1ncccc1O)*; NMePhg = CN[CH](C(=O)O)c1ccccc1; Hyp = O=C(O)[CH]1C[CH](O)CN1; Cbz = O=C(OCc1ccccc1)*; Nva = CCC[CH](N)C(=O)O; Sar = CNCC(=O)O

Regarding `C[n+]1c(-c2cccc3ccccc23)c2cc(N)ccc2c2ccccc21`, the T/C (dose: 1.56 mg/kg/injection, schedule: Q01DX009 (ip), vehicle: saline) is 117 % of control; the T/C under setting [1] is 122 % of control; the T/C under setting [2] is 119 % of control.

Turning to `CC(/C=C/C1OC(=O)C=CC1C)=C\C(C)C/C=C/C(C)=C/C(C)C(=O)C(C)C(O)C(C)C/C(C)=C/C(=O)O` (stereo not given), the T/C is, setting by setting: (dose: 12.5 micrograms/kg/injection, schedule: Q01DX009 (ip), vehicle: saline + alcohol) 170 % of control and 184 % of control; (dose: 25.0 micrograms/kg/injection, schedule: Q01DX009 (ip), vehicle: saline + alcohol) 176 % of control and 224 % of control.

Turning to `CC(=O)Nc1ccc(N=Nc2c(O)c(S(=O)(=O)O)cc3cc(S(=O)(=O)O)ccc23)cc1`, the T/C under setting [3] was 111 % of control, the T/C under setting [4] was 100 % of control and the T/C under setting [5] was 98 % of control.

On to `CC(C)CC1NC(=O)C(NC(=O)c2ncccc2O)C(C)OC(=O)C(c2ccccc2)N(C)C(=O)C(C)NC(=O)C(C(C)C(C)C)N(C)C(=O)CN(C)C(=O)C2CC(O)CN2C1=O` (stereo not given) ({Picolinoyl(3-OH)}-TL[Hyp][Sar][X5]A[NMePhg]; ester 1-C; configuration not given here), for which the T/C runs as follows: under setting [6], 103 % of control; under setting [7], 107 % of control; under setting [8], 111 % of control.

Consider `CN1CCN(CCCN2c3ccccc3Sc3ccc(C(F)(F)F)cc32)CC1`, for which the T/C under setting [1] was 100 % of control; the T/C under setting [2] was 106 % of control; the T/C under setting [9] was 107 % of control; the T/C (dose: 12.5 mg/kg/injection, schedule: Q01DX009 (ip), vehicle: saline) was 98 % of control; the T/C (dose: 16.0 mg/kg/injection, schedule: Q01DX009 (ip), vehicle: saline) was 93 % of control; the T/C (dose: 32.0 mg/kg/injection, schedule: Q01DX009 (ip), vehicle: saline) is 87 % of control.

For `COc1ccc(/C(C#N)=C2\OC(=O)c3ccccc32)cc1OC`, the T/C was 95 % of control (dose: 3.12 mg/kg/injection, schedule: Q01DX009 (ip), vehicle: saline with Tween-80); 93 % of control under setting [10]; 107 % of control under setting [11]; 88 % of control under setting [12]; 91 % of control under setting [3]; 88 % of control under setting [5].

For `CC(C)(C)OC(=O)NC(CO)C(=O)O` (stereo not given), the T/C reads like this: under setting [3], 95 % of control; under setting [4], 95 % of control; under setting [5], 90 % of control.

`C[n+]1c(-c2cccc(OCCCCCCCOc3cccc(-c4c5cc(N)ccc5c5ccc(N)cc5[n+]4C)c3)c2)c2cc(N)ccc2c2ccc(N)cc21`: the T/C reads like this: (dose: 0.02 mg/kg/injection, schedule: Q01DX009 (ip), vehicle: water) 98 % of control; (dose: 0.04 mg/kg/injection, schedule: Q01DX009 (ip), vehicle: water) 109 % of control.

Turning to `COc1cccc2c1C(=O)c1c(O)c3c(c(O)c1C2=O)C[C@@](O)(/C(C)=N/NC(=O)c1ccc(Cl)cc1)C[C@@H]3OC1CC(N)C(O)C(C)O1` (stereo not given in full), the T/C reads like this: (dose: 0.5 mg/kg/injection, schedule: Q01DX009 (ip), vehicle: saline) 105 % of control; (dose: 2.0 mg/kg/injection, schedule: Q01DX009 (ip), vehicle: saline) 183 % of control; (dose: 4.0 mg/kg/injection, schedule: Q01DX009 (ip), vehicle: saline) 216 % of control; under setting [9], 151 % of control.

Regarding `COc1cc(C)c(C2NC(=O)c3ccccc3N2)cc1C` (stereo not given), the T/C was 111 % of control and 120 % of control under setting [6]; 115 % of control and 105 % of control under setting [7]; 111 % of control under setting [8]; 112 % of control under setting [13]; 107 % of control (dose: 800.0 mg/kg/injection, schedule: Q01DX009 (ip), vehicle: Klucel (hydroxypropylcellulose) (HPC)).

On to `CC(C)OC(=O)c1ccc(C(C)C)cc1`, for which the T/C reads like this: (dose: 3.13 mg/kg/injection, schedule: Q01DX009 (ip), vehicle: saline with Tween-80) 94 % of control; under setting [10], 96 % of control; under setting [11], 96 % of control and 101 % of control; under setting [3], 90 % of control.

Consider `CCOC(=O)C(Cc1ccc(O)cc1)NC(=O)c1ccccc1` (stereo not given), for which the T/C is 116 % of control (dose: 40.0 mg/kg/injection, schedule: Q01DX009 (ip), vehicle: saline with Tween-80); 96 % of control (dose: 80.0 mg/kg/injection, schedule: Q01DX009 (ip), vehicle: saline with Tween-80); 112 % of control (dose: 160.0 mg/kg/injection, schedule: Q01DX009 (ip), vehicle: saline with Tween-80); 96 % of control (dose: 320.0 mg/kg/injection, schedule: Q01DX009 (ip), vehicle: saline with Tween-80); 101 % of control (dose: 640.0 mg/kg/injection, schedule: Q01DX009 (ip), vehicle: saline with Tween-80).

On to `CCCC(NC(=O)OCc1ccccc1)C(=O)NC(C(=O)O)C(C)CC` (stereo not given) (Cbz-[Nva]-Ile-OH; configuration not given here), for which the T/C is, setting by setting: under setting [7], 101 % of control; under setting [8], 109 % of control.

On to `O=c1[nH]cnc2c1ccn2C1OC(CO)C(O)C1O` (stereo not given), for which the T/C by setting is: (dose: 0.37 mg/kg/injection, schedule: Q01DX009 (ip), vehicle: saline) 106 % of control; (dose: 0.75 mg/kg/injection, schedule: Q01DX009 (ip), vehicle: saline) 99 % of control; (dose: 1.5 mg/kg/injection, schedule: Q01DX009 (ip), vehicle: saline) 106 % of control; (dose: 3.0 mg/kg/injection, schedule: Q01DX009 (ip), vehicle: saline) 113 % of control; (dose: 6.0 mg/kg/injection, schedule: Q01DX009 (ip), vehicle: saline) 115 % of control; (dose: 12.0 mg/kg/injection, schedule: Q01DX009 (ip), vehicle: saline) 105 % of control.

Turning to `O=C1NC(=O)NC(C(=O)O)N1`, the T/C was 108 % of control (dose: 0.75 mg/kg/injection, schedule: Q01DX009 (ip), vehicle: Klucel (hydroxypropylcellulose) (HPC)); 106 % of control (dose: 1.5 mg/kg/injection, schedule: Q01DX009 (ip), vehicle: Klucel (hydroxypropylcellulose) (HPC)); 116 % of control (dose: 3.0 mg/kg/injection, schedule: Q01DX009 (ip), vehicle: Klucel (hydroxypropylcellulose) (HPC)); 106 % of control (dose: 6.0 mg/kg/injection, schedule: Q01DX009 (ip), vehicle: Klucel (hydroxypropylcellulose) (HPC)); 107 % of control (dose: 12.0 mg/kg/injection, schedule: Q01DX009 (ip), vehicle: Klucel (hydroxypropylcellulose) (HPC)).

`Cc1ccc(NC(=O)Oc2ccc(Br)cc2Br)c([N+](=O)[O-])c1`: the T/C reads like this: under setting [11], 105 % of control; under setting [12], 104 % of control; under setting [3], 105 % of control; under setting [4], 101 % of control; under setting [5], 103 % of control; (dose: 400.0 mg/kg/injection, schedule: Q01DX009 (ip), vehicle: saline with Tween-80) 107 % of control.

As to `Oc1cccc2ccccc12`, the T/C (dose: 25.0 mg/kg/injection, schedule: Q01DX009 (sc), vehicle: other) is 97 % of control; the T/C (dose: 50.0 mg/kg/injection, schedule: Q01DX009 (sc), vehicle: other) was 94 % of control; the T/C (dose: 100.0 mg/kg/injection, schedule: Q01DX009 (sc), vehicle: other) was 100 % of control; the T/C (dose: 200.0 mg/kg/injection, schedule: Q01DX009 (sc), vehicle: other) is 92 % of control.

With `[Na+]`, the T/C runs as follows: (dose: 25.0 mg/kg/injection, schedule: Q01DX009 (ip), vehicle: water) 111 % of control; (dose: 50.0 mg/kg/injection, schedule: Q01DX009 (ip), vehicle: water) 91 % of control; (dose: 100.0 mg/kg/injection, schedule: Q01DX009 (ip), vehicle: water) 92 % of control; (dose: 200.0 mg/kg/injection, schedule: Q01DX009 (ip), vehicle: water) 106 % of control; (dose: 400.0 mg/kg/injection, schedule: Q01DX009 (ip), vehicle: water) 86 % of control.

As for `CC(=O)OC(OC(C)=O)c1ccc([N+](=O)[O-])c([N+](=O)[O-])c1`, the T/C is 102 % of control (dose: 12.5 mg/kg/injection, schedule: Q01DX009 (ip), vehicle: Klucel (hydroxypropylcellulose) (HPC)); 99 % of control (dose: 25.0 mg/kg/injection, schedule: Q01DX009 (ip), vehicle: Klucel (hydroxypropylcellulose) (HPC)); 102 % of control under setting [6].

As to `CC(OCc1ccccc1)C(NC(=O)OC(C)(C)C)C(=O)O` (stereo not given), the T/C under setting [7] was 92 % of control, the T/C under setting [8] is 100 % of control and the T/C under setting [13] was 96 % of control.
